3 compounds from patent publication EP0400319A1, “4-(4'-Halophenyl)-2-methyl-1,2,3,4-tetrahydroisoquinolines and process for their preparation” (N I S PRI VCHTI, priority 1989, dated 1990) can be followed below.

Several values for one entry are separate records, joined by “and”; a condition that tells them apart may be missing. Equal entries are not always repeated. Structures can show the parent of a compound that is named as a salt.

The experiment relates to durch Wasser-Immersionsstreß verursachte Magengeschwüre. Nature of the experiment: Water-immersion stress induced gastric ulcers in rats. It is filed as in vivo, Ratten. Particulars: for Geschwürindex: 5 h water immersion; for Antiulkuswirkung im Vergleich zum Präparat Ranitidin: ratio of doses giving about 52% inhibition. From the text: Untersucht wurde auch die Antiulkusaktivität der razemischen 1a- und 1b-Verbindungen auf ein experimentelles Modell von Wasser-Immersionsstreß verursachten Magengeschwüren bei Ratten (Tabelle 2). Das Vergleichspräparat war der H₂-Antagonist Ranitidin.
Bestimmung der inhibierenden Wirkung von 1a und 1b auf durch Wasser-Immersionsstreß verursachte Magengeschwüre bei Ratten
Die Versuche wurden mit 280 weißen männlichen Ratten der Rasse Wistar mit einem Gewicht von 150 bis 200 g nach der in K. Takadi, Y. Ischii, Arzneim. Forsch. Drug Res., 1967, 17, 1544, beschriebenen Methode durchgeführt. 18 h vor dem Versuch hungern die Tiere unter freiem Wasserzutritt. Die Versuchsverbindung wird oral verabreicht, worauf die Tiere unbeweglich und voneinander isoliert auf dem Rücken auf eine Unterlage gebunden werden. Man legt die Tiere bei 17-18°C ins Wasser und tötet sie nach 5 h. Die Mägen werden entnommen und die destruktiven Veränderungen makroskopisch bestimmt.

Turning to `CN1Cc2ccccc2C(c2ccc(Br)cc2)C1` (racemic) [1a, 4-(4′-Bromphenyl)-2-methyl-1,2,3,4-tetrahydroisochinolin Hydrochlorid], under “Rattus norvegicus, 5 h, oral, Inhibierungsgrad 52% at this dose, read-out: durchschnittliche effektive Dosis”, the ED50 is 0.5 mg/kg. Besides, the “Dosis, bei der der Inhibierungsgrad ein Maximum erreicht” value (oral) is 3 mg/kg. The “Unterdrückung des Geschwürindex” value (oral, 0,050 mg/kg) was 20,6%; the “Unterdrückung des Geschwürindex” value (oral, 0,100 mg/kg) is 48,9% and 48,3%; the “Unterdrückung des Geschwürindex” value (oral, 0,500 mg/kg) is 52,1%; the “Unterdrückung des Geschwürindex” value (oral, 1,000 mg/kg) is listed as 58,9%; the “Unterdrückung des Geschwürindex” value (oral, 3,000 mg/kg) was 70,3%. In addition, the Geschwürindex runs as follows: (oral, 0,050 mg/kg) 69 ±18,2; (oral, 0,100 mg/kg) 44,4 ± 9,66; (oral, 0,500 mg/kg) 30,8 ±17,7; (oral, 1,000 mg/kg) 35,7 ±14,2; (oral, 3,000 mg/kg) 19,5 ±12,3. The “Antiulkuswirkung im Vergleich zum Präparat Ranitidin” value (oral) came to 20 Mal.

Consider `CN1Cc2ccccc2C(c2ccc(F)cc2)C1` (racemic) [1b, 4-(4′-fluorphenyl)-2-methyl-1,2,3,4-tetrahydroisochinolin Hydrochlorid], for which, under “oral, 1,000 mg/kg”, the “Unterdrückung des Geschwürindex” value was 41,53% and the Geschwürindex is 38,5 ± 7,75. Also, where the note is “oral, 3,000 mg/kg”, the “Unterdrückung des Geschwürindex” value is reported as 57,98% and the Geschwürindex is reported as 27,66±12,73. Also, the “Antiulkuswirkung im Vergleich zum Präparat Ranitidin” value (oral) was “Ähnliche Ergebnisse”.

On to `CNC(=C[N+](=O)[O-])NCCSCc1ccc(CN(C)C)o1` [Ranitidin, reference compound], for which the “Unterdrückung des Geschwürindex” value is reported as 46,98% (oral, 10 mg/kg); 61,62% (oral, 30 mg/kg); 27% (oral, 0,500 mg/kg); 39,27% (oral, 1,000 mg/kg); 35,89% (oral, 3,000 mg/kg). The Geschwürindex is on record as 22,8 (oral, 10 mg/kg); 17,0 (oral, 30 mg/kg); 32,3 (oral, 0,500 mg/kg); 26,9 (oral, 1,000 mg/kg); 28,4 (oral, 3,000 mg/kg).
